Legend:
SNU-16 [1] = experiment: Induction of apoptosis in human SNU-16 cells assessed as live cells at 0.03 uM incubated for 72 hrs by annexin-V/FITC propidium iodide staining based flow cytometry analysis (reference value: 90.92%); type: functional
SNU-16 [2] = experiment: Induction of apoptosis in human SNU-16 cells assessed as dead cells at 0.1 uM incubated for 72 hrs by annexin-V/FITC propidium iodide staining based flow cytometry analysis (reference value: […]); type: functional
SNU-16 [3] = experiment: Induction of apoptosis in human SNU-16 cells assessed as early apoptotic cells at 0.3 uM incubated for 72 hrs by annexin-V/FITC propidium iodide staining based flow cytometry analysis (reference value: 3.02%); type: functional
SNU-16 [4] = experiment: Induction of apoptosis in human SNU-16 cells assessed as dead cells at 1 uM incubated for 72 hrs by annexin-V/FITC propidium iodide staining based flow cytometry analysis (reference value: […]); type: functional
SNU-16 [5] = experiment: Induction of apoptosis in human SNU-16 cells assessed as dead cells at 0.3 uM incubated for 72 hrs by annexin-V/FITC propidium iodide staining based flow cytometry analysis (reference value: […]); type: functional
SNU-16 [6] = experiment: Induction of apoptosis in human SNU-16 cells assessed as live cells at 1 uM incubated for 72 hrs by annexin-V/FITC propidium iodide staining based flow cytometry analysis (reference value: 90.92%); type: functional
SNU-16 [7] = experiment: Induction of apoptosis in human SNU-16 cells assessed as early apoptotic cells at 0.1 uM incubated for 72 hrs by annexin-V/FITC propidium iodide staining based flow cytometry analysis (reference value: 3.02%); type: functional
SNU-16 [8] = experiment: Induction of apoptosis in human SNU-16 cells assessed as live cells at 0.3 uM incubated for 72 hrs by annexin-V/FITC propidium iodide staining based flow cytometry analysis (reference value: 90.92%); type: functional
SNU-16 [9] = experiment: Induction of apoptosis in human SNU-16 cells assessed as dead cells at 0.03 uM incubated for 72 hrs by annexin-V/FITC propidium iodide staining based flow cytometry analysis (reference value: […]); type: functional
[10] = Toxicity in BALB/c nude mouse xenografted with human SNU-16 cells assessed as reduction in body weight at 50 mg/kg/day, ip administered for 18 days and measured every 3 days; type: organism-based; settings: in vivo, 432 h, time 18 day
SNU-16 [11] = experiment: Induction of apoptosis in human SNU-16 cells assessed as late apoptotic cells at 0.3 uM incubated for 72 hrs by annexin-V/FITC propidium iodide staining based flow cytometry analysis (reference value: 3.41%); type: functional
SNU-16 [12] = experiment: Induction of apoptosis in human SNU-16 cells assessed as early apoptotic cells at 0.03 uM incubated for 72 hrs by annexin-V/FITC propidium iodide staining based flow cytometry analysis (reference value: 3.02%); type: functional
[13] = Toxicity in BALB/c nude mouse xenografted with human HCT-116 cells assessed as reduction in body weight at 30 mg/kg/day, po administered for 18 days and measured every 3 days; type: organism-based; settings: in vivo, 432 h, time 18 day
SNU-16 [14] = experiment: Induction of apoptosis in human SNU-16 cells assessed as late apoptotic cells at 1 uM incubated for 72 hrs by annexin-V/FITC propidium iodide staining based flow cytometry analysis (reference value: 3.41%); type: functional
SNU-16 [15] = experiment: Induction of apoptosis in human SNU-16 cells assessed as live cells at 0.1 uM incubated for 72 hrs by annexin-V/FITC propidium iodide staining based flow cytometry analysis (reference value: 90.92%); type: functional
SNU-16 [16] = experiment: Induction of apoptosis in human SNU-16 cells assessed as late apoptotic cells at 0.1 uM incubated for 72 hrs by annexin-V/FITC propidium iodide staining based flow cytometry analysis (reference value: 3.41%); type: functional
SNU-16 [17] = experiment: Induction of apoptosis in human SNU-16 cells assessed as late apoptotic cells at 0.03 uM incubated for 72 hrs by annexin-V/FITC propidium iodide staining based flow cytometry analysis (reference value: 3.41%); type: functional
K562 = experiment: cells; type: functional, cell-based; settings: Homo sapiens, K562, 72 h
SNU-16 [18] = experiment: Induction of apoptosis in human SNU-16 cells assessed as early apoptotic cells at 1 uM incubated for 72 hrs by annexin-V/FITC propidium iodide staining based flow cytometry analysis (reference value: 3.02%); type: functional
[19] = Half life in Sprague-Dawley rat at 30 mg/kg, po measured for 24 hrs by LC-MS/MS-18 analysis; type: ADME, organism-based; settings: in vivo
[20] = Clearance in Sprague-Dawley rat at 2 mg/kg, iv measured for 24 hrs by LC-MS/MS-18 analysis; type: ADME, organism-based; settings: in vivo
[21] = Oral bioavailability in Sprague-Dawley rat at 30 mg/kg measured for 24 hrs by LC-MS/MS-18 analysis; type: ADME, organism-based; settings: in vivo
[22] = Tmax in Sprague-Dawley rat at 2 mg/kg, iv measured for 24 hrs by LC-MS/MS-18 analysis; type: ADME, organism-based; settings: in vivo
[23] = Cmax in Sprague-Dawley rat at 5 mg/kg, ip measured for 24 hrs by LC-MS/MS-18 analysis; type: ADME, organism-based; design: time 24 hrs, dose 5 mg/kg, route ip; settings: in vivo
[24] = biological target: Fibroblast growth factor receptor 3 (Homo sapiens, UniProt P22607); experiment: Inhibition of FGFR3 (unknown origin)
Fibroblast growth factor receptor 3, sequence (P22607 whole entry): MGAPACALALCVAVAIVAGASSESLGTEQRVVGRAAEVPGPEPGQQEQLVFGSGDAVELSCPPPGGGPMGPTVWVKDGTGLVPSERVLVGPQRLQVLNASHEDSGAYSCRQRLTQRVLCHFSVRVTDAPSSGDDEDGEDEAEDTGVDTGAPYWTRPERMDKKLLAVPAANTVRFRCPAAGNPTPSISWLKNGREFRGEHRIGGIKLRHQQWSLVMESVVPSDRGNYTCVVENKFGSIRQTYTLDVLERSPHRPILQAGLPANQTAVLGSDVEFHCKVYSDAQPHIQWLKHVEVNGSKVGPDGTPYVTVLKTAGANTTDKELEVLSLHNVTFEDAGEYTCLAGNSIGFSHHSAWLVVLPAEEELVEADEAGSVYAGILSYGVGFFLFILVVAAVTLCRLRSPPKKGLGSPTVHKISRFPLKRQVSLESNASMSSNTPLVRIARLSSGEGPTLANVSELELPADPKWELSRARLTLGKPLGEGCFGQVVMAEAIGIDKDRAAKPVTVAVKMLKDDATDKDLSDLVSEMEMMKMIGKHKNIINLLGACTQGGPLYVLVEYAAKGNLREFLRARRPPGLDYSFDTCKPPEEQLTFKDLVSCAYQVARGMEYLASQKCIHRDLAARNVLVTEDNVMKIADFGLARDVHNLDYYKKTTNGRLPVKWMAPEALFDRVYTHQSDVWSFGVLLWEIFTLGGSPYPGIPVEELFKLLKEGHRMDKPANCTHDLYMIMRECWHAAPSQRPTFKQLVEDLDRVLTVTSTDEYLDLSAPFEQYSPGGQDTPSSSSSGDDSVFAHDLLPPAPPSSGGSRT

Histone deacetylase 2 = Histone deacetylase 2 (Homo sapiens, UniProt Q92769); experiment: Inhibition of HDAC2 (unknown origin)
Histone deacetylase 2, sequence (Q92769 whole entry): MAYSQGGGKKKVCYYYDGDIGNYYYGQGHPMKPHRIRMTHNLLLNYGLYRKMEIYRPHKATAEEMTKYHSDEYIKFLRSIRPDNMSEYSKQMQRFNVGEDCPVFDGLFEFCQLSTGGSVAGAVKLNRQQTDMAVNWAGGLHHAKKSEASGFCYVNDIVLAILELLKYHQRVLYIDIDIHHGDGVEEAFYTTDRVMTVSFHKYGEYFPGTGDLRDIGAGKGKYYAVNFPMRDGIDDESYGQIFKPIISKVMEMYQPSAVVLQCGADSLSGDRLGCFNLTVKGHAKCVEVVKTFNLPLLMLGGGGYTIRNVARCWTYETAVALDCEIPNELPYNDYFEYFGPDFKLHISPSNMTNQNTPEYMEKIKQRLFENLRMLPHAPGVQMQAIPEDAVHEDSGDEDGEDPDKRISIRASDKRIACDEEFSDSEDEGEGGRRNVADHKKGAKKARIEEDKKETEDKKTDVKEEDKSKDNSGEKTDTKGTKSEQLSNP

[25] = biological target: T1, Protein deacetylase HDAC6 (Homo sapiens, UniProt Q9UBN7); experiment: Inhibition of HDAC6 (unknown origin)
T1 sequence (Q9UBN7 whole entry): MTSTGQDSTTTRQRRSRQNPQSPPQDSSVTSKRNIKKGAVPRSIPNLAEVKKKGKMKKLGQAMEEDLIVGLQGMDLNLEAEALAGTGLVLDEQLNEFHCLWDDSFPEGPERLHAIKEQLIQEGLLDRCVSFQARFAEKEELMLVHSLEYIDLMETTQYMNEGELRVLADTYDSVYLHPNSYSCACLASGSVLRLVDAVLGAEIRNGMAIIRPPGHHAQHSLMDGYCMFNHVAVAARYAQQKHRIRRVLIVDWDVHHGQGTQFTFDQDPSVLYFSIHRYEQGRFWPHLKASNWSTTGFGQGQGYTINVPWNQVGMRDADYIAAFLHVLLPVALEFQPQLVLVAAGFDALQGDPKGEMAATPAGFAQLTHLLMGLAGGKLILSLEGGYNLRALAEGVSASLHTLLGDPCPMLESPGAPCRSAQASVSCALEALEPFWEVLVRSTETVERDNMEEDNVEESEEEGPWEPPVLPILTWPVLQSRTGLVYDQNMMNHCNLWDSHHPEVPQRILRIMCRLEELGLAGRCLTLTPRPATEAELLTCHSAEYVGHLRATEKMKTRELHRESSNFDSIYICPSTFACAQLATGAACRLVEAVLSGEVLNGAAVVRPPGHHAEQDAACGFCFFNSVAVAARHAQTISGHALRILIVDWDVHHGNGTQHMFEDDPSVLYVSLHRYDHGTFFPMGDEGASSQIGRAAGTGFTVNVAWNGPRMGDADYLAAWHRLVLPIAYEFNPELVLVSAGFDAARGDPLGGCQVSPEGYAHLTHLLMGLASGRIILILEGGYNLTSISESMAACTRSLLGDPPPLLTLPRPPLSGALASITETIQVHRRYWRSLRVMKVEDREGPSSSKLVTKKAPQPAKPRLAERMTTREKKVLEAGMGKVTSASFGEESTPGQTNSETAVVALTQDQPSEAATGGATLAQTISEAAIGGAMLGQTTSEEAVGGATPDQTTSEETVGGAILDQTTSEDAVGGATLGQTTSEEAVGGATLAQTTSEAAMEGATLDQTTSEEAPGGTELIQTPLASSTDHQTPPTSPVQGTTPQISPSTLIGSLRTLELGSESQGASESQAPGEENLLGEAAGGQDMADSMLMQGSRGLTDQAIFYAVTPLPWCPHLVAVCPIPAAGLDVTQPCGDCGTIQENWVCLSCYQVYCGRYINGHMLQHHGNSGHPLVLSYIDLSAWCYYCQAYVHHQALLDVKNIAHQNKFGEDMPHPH

[26] = Cmax in Sprague-Dawley rat at 2 mg/kg, iv measured for 24 hrs by LC-MS/MS-18 analysis; type: ADME, organism-based; design: time 24 hrs, dose 2 mg/kg, route iv; settings: in vivo
[27] = Toxicity in BALB/c nude mouse xenografted with human SNU-16 cells assessed as reduction in body weight at 15 to 30 mg/kg/day, ip administered for 18 days and measured every 3 days; type: organism-based; settings: in vivo, 432 h, dose 15-30 mg/kg/day, time 18 day
[28] = biological target: Fibroblast growth factor receptor 2 (Homo sapiens, UniProt P21802); experiment: Inhibition of FGFR2 (unknown origin)
Fibroblast growth factor receptor 2, sequence (P21802 whole entry): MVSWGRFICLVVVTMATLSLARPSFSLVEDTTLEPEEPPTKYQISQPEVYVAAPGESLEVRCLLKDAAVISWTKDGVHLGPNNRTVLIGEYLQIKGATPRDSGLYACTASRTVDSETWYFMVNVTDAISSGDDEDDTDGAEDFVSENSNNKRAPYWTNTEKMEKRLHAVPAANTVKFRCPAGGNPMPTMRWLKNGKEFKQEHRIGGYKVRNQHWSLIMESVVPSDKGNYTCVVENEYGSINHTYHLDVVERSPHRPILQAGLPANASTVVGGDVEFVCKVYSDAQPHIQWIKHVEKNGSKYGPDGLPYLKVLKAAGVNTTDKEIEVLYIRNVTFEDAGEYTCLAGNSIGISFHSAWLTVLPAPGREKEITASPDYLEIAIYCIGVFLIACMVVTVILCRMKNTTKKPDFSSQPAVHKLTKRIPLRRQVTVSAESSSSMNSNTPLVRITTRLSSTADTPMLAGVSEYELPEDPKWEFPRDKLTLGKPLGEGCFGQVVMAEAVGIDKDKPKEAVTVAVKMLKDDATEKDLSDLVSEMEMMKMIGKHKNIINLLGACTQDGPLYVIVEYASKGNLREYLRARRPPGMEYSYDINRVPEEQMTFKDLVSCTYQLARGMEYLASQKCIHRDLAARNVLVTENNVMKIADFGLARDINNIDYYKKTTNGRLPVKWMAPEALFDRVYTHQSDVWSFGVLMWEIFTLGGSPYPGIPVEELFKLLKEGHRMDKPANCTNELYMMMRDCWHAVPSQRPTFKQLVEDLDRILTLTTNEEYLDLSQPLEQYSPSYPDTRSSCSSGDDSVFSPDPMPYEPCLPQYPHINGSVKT

[29] = Oral bioavailability in Sprague-Dawley rat at 5 mg/kg measured for 24 hrs by LC-MS/MS-18 analysis; type: ADME, organism-based; settings: in vivo, route ip
[30] = AUC (0 to infinity) in Sprague-Dawley rat at 5 mg/kg, ip measured for 24 hrs by LC-MS/MS-18 analysis; type: ADME, organism-based; design: time 24 hrs, dose 5 mg/kg, route ip; settings: in vivo
[31] = Half life in Sprague-Dawley rat at 2 mg/kg, iv measured for 24 hrs by LC-MS/MS-18 analysis; type: ADME, organism-based; settings: in vivo
[32] = Toxicity in BALB/c nude mouse xenografted with human HCT-116 cells assessed as reduction in body weight at 15 to 30 mg/kg/day, po administered for 18 days and measured every 3 days; type: organism-based; settings: in vivo, 432 h, dose 15-30 mg/kg/day, time 18 day
[33] = Tmax in Sprague-Dawley rat at 5 mg/kg, ip measured for 24 hrs by LC-MS/MS-18 analysis; type: ADME, organism-based; settings: in vivo
[34] = Tmax in Sprague-Dawley rat at 30 mg/kg, po measured for 24 hrs by LC-MS/MS-18 analysis; type: ADME, organism-based; settings: in vivo
[35] = AUC (0 to infinity) in Sprague-Dawley rat at 2 mg/kg, iv measured for 24 hrs by LC-MS/MS-18 analysis; type: ADME, organism-based; design: time 24 hrs, dose 2 mg/kg, route iv; settings: in vivo
[36] = biological target: Fibroblast growth factor receptor 4 (Homo sapiens, UniProt P22455); experiment: Inhibition of FGFR4 (unknown origin)
Fibroblast growth factor receptor 4, sequence (P22455 whole entry): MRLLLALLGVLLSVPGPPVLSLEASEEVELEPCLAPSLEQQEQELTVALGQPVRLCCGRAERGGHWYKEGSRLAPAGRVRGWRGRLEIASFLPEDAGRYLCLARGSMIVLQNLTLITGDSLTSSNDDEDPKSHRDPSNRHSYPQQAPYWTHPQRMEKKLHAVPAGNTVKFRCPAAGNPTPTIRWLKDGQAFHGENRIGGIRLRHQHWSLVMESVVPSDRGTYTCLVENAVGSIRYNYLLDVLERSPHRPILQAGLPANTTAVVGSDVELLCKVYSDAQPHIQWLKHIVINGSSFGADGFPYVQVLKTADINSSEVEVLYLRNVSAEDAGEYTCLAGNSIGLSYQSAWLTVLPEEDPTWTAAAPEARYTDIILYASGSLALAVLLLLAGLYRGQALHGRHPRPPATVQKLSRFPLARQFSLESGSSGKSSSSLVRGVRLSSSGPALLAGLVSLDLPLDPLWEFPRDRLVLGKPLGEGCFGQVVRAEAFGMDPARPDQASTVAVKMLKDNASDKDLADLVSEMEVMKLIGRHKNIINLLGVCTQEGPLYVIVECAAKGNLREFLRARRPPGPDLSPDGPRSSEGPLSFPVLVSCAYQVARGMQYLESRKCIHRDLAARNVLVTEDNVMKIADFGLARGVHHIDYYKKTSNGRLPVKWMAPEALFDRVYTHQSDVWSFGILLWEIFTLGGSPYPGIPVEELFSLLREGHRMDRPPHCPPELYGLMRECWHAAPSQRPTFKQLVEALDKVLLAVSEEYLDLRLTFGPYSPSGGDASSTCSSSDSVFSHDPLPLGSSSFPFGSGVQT

Histone deacetylase 8 = biological target: T2, Histone deacetylase 8 (Homo sapiens, UniProt Q9BY41); experiment: Inhibition of HDAC8 (unknown origin)
T2 sequence (Q9BY41 whole entry): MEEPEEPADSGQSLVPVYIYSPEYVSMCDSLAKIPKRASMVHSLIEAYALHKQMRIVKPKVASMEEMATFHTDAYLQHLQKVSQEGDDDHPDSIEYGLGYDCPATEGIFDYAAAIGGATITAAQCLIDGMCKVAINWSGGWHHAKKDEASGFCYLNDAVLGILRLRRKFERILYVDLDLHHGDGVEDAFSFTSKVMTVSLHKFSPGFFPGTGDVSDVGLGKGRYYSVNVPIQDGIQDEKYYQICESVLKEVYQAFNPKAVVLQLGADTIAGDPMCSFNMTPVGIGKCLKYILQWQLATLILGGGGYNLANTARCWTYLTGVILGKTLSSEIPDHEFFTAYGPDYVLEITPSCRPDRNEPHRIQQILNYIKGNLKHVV

[37] = AUC (0 to infinity) in Sprague-Dawley rat at 30 mg/kg, po measured for 24 hrs by LC-MS/MS-18 analysis; type: ADME, organism-based; design: dose 30 mg/kg, time 24 hrs, route po; settings: in vivo
Histone deacetylase 1 = Histone deacetylase 1 (Homo sapiens, UniProt Q13547); experiment: Inhibition of HDAC1 (unknown origin)
Histone deacetylase 1, sequence (Q13547 whole entry): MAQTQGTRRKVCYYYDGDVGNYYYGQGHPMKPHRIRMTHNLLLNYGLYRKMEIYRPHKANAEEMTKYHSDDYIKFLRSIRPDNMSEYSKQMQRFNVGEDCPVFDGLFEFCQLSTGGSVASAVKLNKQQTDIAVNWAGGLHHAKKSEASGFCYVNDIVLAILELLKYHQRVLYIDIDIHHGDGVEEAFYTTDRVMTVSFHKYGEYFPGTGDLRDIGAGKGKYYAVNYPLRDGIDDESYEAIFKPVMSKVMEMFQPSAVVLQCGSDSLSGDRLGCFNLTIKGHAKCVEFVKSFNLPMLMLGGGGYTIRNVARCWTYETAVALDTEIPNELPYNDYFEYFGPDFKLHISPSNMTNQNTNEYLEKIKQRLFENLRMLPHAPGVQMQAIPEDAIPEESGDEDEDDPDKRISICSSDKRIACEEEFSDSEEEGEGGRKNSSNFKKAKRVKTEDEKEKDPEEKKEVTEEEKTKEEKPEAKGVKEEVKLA

[38] = Cmax in Sprague-Dawley rat at 30 mg/kg, po measured for 24 hrs by LC-MS/MS-18 analysis; type: ADME, organism-based; design: dose 30 mg/kg, time 24 hrs, route po; settings: in vivo
[39] = Volume of distribution at steady state in Sprague-Dawley rat at 2 mg/kg, iv measured for 24 hrs by LC-MS/MS-18 analysis; type: ADME, organism-based; settings: in vivo, read-out: Vdss
[40] = Half life in Sprague-Dawley rat at 5 mg/kg, ip measured for 24 hrs by LC-MS/MS-18 analysis; type: ADME, organism-based; settings: in vivo

## O=C(CCCCCCC(=O)Nc1ccccc1)NO [VORINOSTAT]
SNU-16 [1]
  Activity: 84.26%
SNU-16 [2]
  Activity: 6.19%
SNU-16 [3]
  Activity: 2.48%
SNU-16 [4]
  Activity: 4.21%
SNU-16 [5]
  Activity: 6.4%
SNU-16 [6]
  Activity: 77.22%
SNU-16 [7]
  Activity: 3.51%
SNU-16 [8]
  Activity: 80.66%
SNU-16 [9]
  Activity: 5.77%
[10]
  Activity: Non-Toxic
SNU-16 [11]
  Activity: 10.46%
SNU-16 [12]
  Activity: 3.12%
[13]
  Activity: Non-Toxic
SNU-16 [14]
  Activity: 15.42%
SNU-16 [15]
  Activity: 80.33%
SNU-16 [16]
  Activity: 9.98%
SNU-16 [17]
  Activity: 6.85%
K562
  IC50: 2240 nM
SNU-16 [18]
  Activity: 3.16%

## COc1cc(OC)cc(N(CCNC(C)C)c2ccc3ncc(-c4cnn(CCCCCCC(=O)NO)c4)nc3c2)c1
[19]
  half-life: 0.77 h
[20]
  clearance: 80.6 mL/min/kg
[21]
  bioavailability: 24.8%
[22]
  Tmax: 4.8 min
[23]
  Cmax: 102 ng/mL
[24]
  IC50: 0.46 nM
Histone deacetylase 2
  IC50: 1.6 nM
[25]
  IC50: 2.6 nM
[26]
  Cmax: 1120 ng/mL
[27]
  Activity: Non-Toxic
[28]
  IC50: 1.2 nM
[29]
  bioavailability: 43.8%
[30]
  AUC(0-inf): 491 ng·h/mL
[31]
  half-life: 0.98 h
[32]
  Activity: Non-Toxic
[33]
  Tmax: 2 h
[34]
  Tmax: 4 h
[35]
  AUC(0-inf): 425 ng·h/mL
[36]
  IC50: 1.4 nM
Histone deacetylase 8
  IC50: 13 nM
[37]
  AUC(0-inf): 1560 ng·h/mL
Histone deacetylase 1
  IC50: 1.3 nM
[38]
  Cmax: 443 ng/mL
[39]
  Vd: 2.79 L/kg
[40]
  half-life: 1.83 h
